{
  "source": "patent US7973018B2",
  "about": "“Cell cycle arrest and apoptosis” (University of Utah Research Foundation, priority 2004, dated 2011)",
  "key": {"BRCA1 [1]": {"tested_on": "BRCA1", "test": "BRCA1 focus formation, immunofluorescence confocal microscopy", "assay_type": "cell-based, human", "procedure": "(§1) Immunofluorescence staining. HeLa cells were harvested 48 h posttransduction by trypsinization. Single-cell suspensions of minced thymic tissue were prepared for immunostaining 20 h after HIV-1NL4-3 infection. Cells were fixed with 2% paraformaldehyde in phosphate-buffered saline (PBS) for 35 min at 4° C. and then washed three times for 5 min each time in PBS. All subsequent steps were carried out at room temperature. Samples were blocked and permeabilized for 20 min in blocking buffer (3% bovine serum albumin (BSA), 0.2% Triton X-100, and 0.01% skim milk in PBS). Primary antibody (rabbit anti-γ-H2AX (48) or rabbit anti-BRCA1 (Bethyl Laboratories, Montgomery, Tex.)) was diluted 1:400 in incubation buffer (1% BSA and 0.02% Triton X-100 in PBS) and incubated with cells for 45 min. Cells were washed with PBS, after which secondary antibody (goat anti-rabbit immunoglobulin G (IgG)-AlexaFluor568 conjugate (Molecular Probes, Eugene, Oreg.)) diluted 1:500 in incubation buffer was applied for 35 min. Cells were washed with PBS as before and mounted on glass slides by using Fluor Save reagent (CalBiochem, San Diego, Calif.). Cells were visualized for γ-H2AX or BRCA1 immunostaining and green fluorescent protein (GFP) expression by scanning fluorescence confocal microscopy (FluoView FV300; Olympus, Melville, N.Y.).\n(§2) Drug treatment. Cells were incubated with 10 mM hydroxyurea (HU) for 2 h before immunostaining was done.\n(§3) Vpr expression induces γ-H2AX and BRCA1 focus formation. It was possible that Vpr, through ATR activation, would induce γ-H2AX (9) and BRCA1 (45) focus formation. To test this hypothesis, HeLa cells were infected with pHR-Vpr or pHR-GFP and, 48 h later, immunostained with γ-H2AX- or BRCA1-specific antibodies. As a positive control, nontransduced cells were treated for […] with 10 mM HU 10 min prior to immunostaining (46). Samples then were visualized by fluorescence scanning confocal microscopy (FIGS. 3A and B). Cells with multiple (10 or more), intense nuclear foci were manually counted. […]"}, "γ-H2AX": {"tested_on": "γ-H2AX", "test": "γ-H2AX focus formation, immunofluorescence confocal microscopy", "assay_type": "cell-based, human", "procedure": "as §1, §2, §3"}, "ATR and ATM": {"tested_on": "ATR and ATM", "conditions": "references 40, 53; cited from earlier work"}, "ATM and ATR": {"tested_on": "ATM and ATR", "conditions": "vpr-infected cells; references 5, 53; cited from earlier work"}, "HeLa cells": {"tested_on": "HeLa cells", "test": "Cell cycle analysis (G2 arrest) by flow cytometry in HeLa cells", "assay_type": "cell-based, human", "design": "key: P, phosphorylated; A, activated; N, necessary for G2 checkpoint activation; F, focus formation; ?, unknown; D, dispensable for G2 checkpoint activation", "conditions": "ATR target Rad17; this work", "procedure": "Cell cycle analysis. At 48 h after infection, cells were detached by trypsinization, washed with fluorescence-activated cell sorting (FACS) buffer (2% FBS and 0.02% sodium azide in PBS), fixed with 2% paraformaldehyde in PBS, and permeabilized with 0.01% Triton X-100 in PBS for 15 min. Cells were washed again with FACS buffer, incubated in DNA staining buffer (10 μg of propidium iodide/ml and 11.25 kU of RNase A/ml in FACS buffer) for 15 min, and analyzed by FACScan flow cytometry for GFP expression or DNA content (Beckton Dickinson, Franklin Lakes, N.J.). In experiments involving transduction with lentivirus vectors, experiments with 90% transduction efficiency or higher were analyzed. […]\nLentivirus vectors. […] Vector titers were measured by infection of HeLa cells as described herein, followed by flow cytometric analysis of cells that were positive for the reporter molecule, GFP. Vector titers were calculated with the equation [(F×C0)/V]×D, where F is the frequency of GFP-positive cells found by flow cytometry, C0 is the total number of target cells at the time of infection, V is the volume of inoculum, and D is the virus dilution factor. […]\nRad17 is necessary for Vpr-mediated G2 arrest. […] At 48 h after transduction, cells were analyzed by flow cytometry for infection efficiency and DNA content, as reported by GFP expression and propidium iodide staining, respectively. […]"}, "p53": {"tested_on": "p53", "design": "key: P, phosphorylated; A, activated; N, necessary for G2 checkpoint activation; F, focus formation; ?, unknown; D, dispensable for G2 checkpoint activation", "conditions": "ATR target p53; reference 41; cited from earlier work"}, "BRCA1 [2]": {"tested_on": "BRCA1", "test": "Western blot for BRCA1 phospho-serine 1423", "assay_type": "cell-based, human", "conditions": "HeLa cells infected with pHR-VPR, 48 hours post-transduction", "procedure": "Western blotting procedures. All western blots were performed using the BioRad Criterion gel system (BioRad, Hercules, Calif.). Antibodies used were GADD45 (Santa Cruz Biotechnology, Santa Cruz, Calif.; sc-797), Actin (Santa Cruz Biotechnologies, Santa Cruz, Calif.; sc-797), CHK2 (Santa Cruz Biotechnology, Santa Cruz, Calif.; sc-8813), ATM (Novus Biologicals, Littleton, Colo.; catalog #100-104H1), phospho-JNK-Tyr183 (Cell Signaling Technology, Beverly, Mass.; catalog #9255S), phospho-p38 kinase (Promega, Madison; 15823207), JNK (Cell Signaling Technology, Beverly, Mass.; 9252), ATR (obtained from Dr. Paul Nghiem, Harvard), anti-rabbit secondary-HRP (Santa Cruz Biotechnology, Santa Cruz, Calif.; sc-2030), anti-goat secondary-HRP (Santa Cruz Biotechnology, Santa Cruz, Calif.; sc-2033), PARP (Cell Signaling Technology, Beverly, Mass.), BRCA1 phospho ser1423 (Bethyl Laboratories, Montgomery, Tex.) Rabbit primary antibodies against Rad17 (Santa Cruz Biotechnology, Santa Cruz, Calif.), and were applied for 90 min at room temperature. Blots were washed three times in TPBS (0.1% Tween 20 in PBS) for 10 min each time at room temperature.\nPhosphorylation of BRCA1 at serine 1423 by HIV-1 Vpr is ATR-dependent. Following DNA damage, ATR phosphorylates BRCA1 at serine 1423 (45, 63). […]"}, "Chk1": {"tested_on": "Chk1", "conditions": "ATR target Chk1; reference 40; cited from earlier work"}, "[3]": {"conditions": "nontransduced HeLa cells treated for 1 h with 10 mM HU"}, "[4]": {"conditions": "HeLa cells, 48 h after infection, 10 or more intense nuclear foci"}},
  "note": "“Also recorded” adds a separate entry of the source.",
  "data": [
    {"molecule": "NC(=O)NO", "note": "[HU, hydroxyurea, reference compound]", "values": [
      {"measurement": "cells exhibiting BRCA1 foci", "setting": "BRCA1 [1]; [3]", "result": "~65", "unit": "%"},
      {"measurement": "cells exhibiting γ-H2AX foci", "setting": "γ-H2AX; [3]", "result": "Approximately 94%"}
    ]},
    {"molecule": "Cn1c(=O)c2c(ncn2C)n(C)c1=O", "note": "[caffeine]", "values": [
      {"measurement": "relief of Vpr-induced G2 arrest", "setting": "ATR and ATM", "result": "completely relieve Vpr-induced G2 arrest"},
      {"measurement": "effect on Vpr-induced apoptosis", "setting": "ATM and ATR", "result": "largely eliminated induction of apoptosis; also recorded: significantly reduces Vpr-induced apoptosis"}
    ]},
    {"molecule": "Vpr: HIV-1 accessory protein Vpr, expressed in cells from pHR-Vpr", "values": [
      {"measurement": "Status in the presence of Vpr (reference or source): BRCA1", "setting": "BRCA1 [1]; ATR target BRCA1, this work", "result": "P, F (this work)"},
      {"measurement": "cells exhibiting BRCA1 foci", "setting": "BRCA1 [1]; [4]", "result": "~69", "unit": "%"},
      {"measurement": "Status in the presence of Vpr (reference or source): Rad17", "setting": "HeLa cells", "result": "N (this work)"},
      {"measurement": "Status in the presence of Vpr (reference or source): p53", "setting": "p53", "result": "D (41)"},
      {"measurement": "Status in the presence of Vpr (reference or source): H2AX", "setting": "γ-H2AX; ATR target H2AX, this work", "result": "P, F (this work)"},
      {"measurement": "cells exhibiting γ-H2AX foci", "setting": "γ-H2AX; [4]", "result": "Approximately 93%"},
      {"measurement": "phosphorylation of BRCA1 at serine 1423", "setting": "BRCA1 [2]", "result": "induced phosphorylation of BRCA1 at serine 1423"},
      {"measurement": "Status in the presence of Vpr (reference or source): Chk1", "setting": "Chk1", "result": "P, A (40)"}
    ]}
  ]
}
